How the values were obtained:
K562 leukemia cells = experiment: In vitro growth inhibition, K562; type: cell-based, human; details: Homo sapiens, 50% of vehicle control cell growth
Experimental: (§1) The K562, HL-60, MDA-MB231, and melanoma (CRL-11174) human cancer cell lines were purchased from ATCC (American Tissue Type Culture Collection, Manassas, Va., United States of America). HeLa, A549, Lewis Lung Carcinoma, MDA-MB231, and melanoma cells were grown in Dulbecco's Modified Eagle Medium (DMEM) (Hyclone, Logan, Utah, United States of America) supplemented with 10% fetal bovine serum (Hyclone, Logan, Utah, United States of America) and 50 μg/mL gentamicin sulfate (Invitrogen, Carlsbad, Calif., United States of America). The HL-60, K562, and Jurkat cell lines were grown in RPMI-1640 medium (Hyclone, Logan, Utah, United States of America) supplemented with 10% fetal bovine serum and 50 μg/mL gentamicin sulfate. […]
(§2) Cells were collected 48 hours post-treatment, and cell number and viability were determined by trypan blue exclusion. […]

HL-60 leukemia cells = experiment: In vitro growth inhibition, HL-60; type: cell-based, human; details: Homo sapiens, 50% of vehicle control cell growth
Experimental: as §1, §2

[1] = tested on: MDA-MB231 breast adenocarcinoma cells; experiment: In vitro growth inhibition, MDA-MB231; type: cell-based; details: Homo sapiens, MDA-MB-231
Experimental: as §1, §2

[2] = tested on: PFKFB3 over-expressing Jurkat cells; experiment: Growth inhibition of Jurkat cells over-expressing PFKFB3 (Tet-ON, doxycycline); type: cell-based; details: Homo sapiens, 48 hours
Experimental: FIG. 6D is a bar graph showing the anti-proliferative effects of 3PO in Jurkat cells engineered to over-express PFKFB3 through doxycylin treatment utilizing the Tet-on system (+PFKFB3, striped bars). Twenty-four hours prior to 3PO treatment, 1 μg/mL of doxycyclin is incubated with Jurkat cells containing a PFKFB3-expressing vector in order to induce PFKFB3 protein levels. Control cells (−PFKFB3, solid bars) containing an empty vector were similarly treated with doxycyclin and served as background PFKFB3 expression. Both cell types were subsequently incubated with increasing concentrations of 3PO (1, 3, 10, or 33 μM) or vehicle (V), and viable cells were analyzed after 48 hours. The bars represent the mean±STD of triplicate values from a representative experiment.
FLAG-PFKFB3 containing the complete PFKFB3 coding sequence and FLAG-epitope at its N-terminus was subcloned into the BamHI/HindIII restriction sites within the retroviral Tet response vector pRevTRE (Clontech, Mountain View, Calif., United States of America). Recombinant retrovirus was produced by Lipofectamine-mediated (Invitrogen, Carlsbad, Calif., United States of America) transfection of the pRevTRE-FLAG-PFKFB3 construct into PT67 packaging cell lines. […]
as §2

[3] = tested on: Lewis Lung Carcinoma xenografts; experiment: F2,6BP in Lewis lung carcinoma tumor xenografts; type: in vivo, mice; details: 0.07 mg/g i.p., four hours post-injection
Experimental: C57Bl/6 female mice (20 g) were injected subcutaneously with 1×10^6 Lewis lung carcinoma cells. When the xenografts were measured to have a mass of between 150 and 180 mg, the mice were split into two groups. One group was injected i.p. with 0.07 mg/g of compound 1. The other group was used as a control and injected i.p. with 50 μL DMSO. Four hours post-injection, tumors were removed and homogenized in equal volumes of 0.1 M and 0.05 M NaOH. F2,6BP assays were performed as previously described. See Van Shaftingen et al., Eur. J. Biochem, 129, 191-195 (1982). […] F2,6BP concentration in the compound 1-treated mouse xenografts was 8.5±1.7 pmol/mg, while in the control mouse xenografts' F2,6BP concentration was 13.1±1.9 pmol/mg.

O=C(/C=C/c1cccnc1)c1ccncc1 [Compound 1, 3-(3-pyridinyl)-1-(4-pyridinyl)-2-propen-1-one]
IC50 (K562 leukemia cells): 3.2 µM
IC50 (HL-60 leukemia cells): 4.5 µM
IC50 [1]: 4.7 µM
IC50 [2]: 19.3 µM
F2,6BP concentration in tumor xenografts [3]: 8.5 ± 1.7 pmol/mg

Source: patent publication US8557823B2, “Family of PFKFB3 inhibitors with anti-neoplastic activities” (Advanced Cancer Therapeutics, LLC, priority 2007, dated 2013)
